Assay results as given in article PMC6222789, “CF3-Substituted Mollugin 2-(4-Morpholinyl)-ethyl ester as a Potential Anti-inflammatory Agent with Improved Aqueous Solubility and Metabolic Stability” (Molecules : A Journal of Synthetic Chemistry and Natural …, 2018).

How the values were obtained:
[1] = tested on: TNF-α-induced adhesion of U937 monocytic cells to HT-29 cells; experiment: TNF-α-induced colonic epithelial cell adhesion assay; assay type: cell-based, human; conditions: for inhibition at 10 µM: Homo sapiens, Epithelial cell, U937 adhesion to HT-29 cells, TNF-α-induced; for inhibition of TNF-α-induced monocyte-epithelial adhesion: 10 μM
Method: (§1) Synthesized mollugin derivatives were subjected to the colonic epithelial cell adhesion assay, which mimics the initial stage of colon inflammation. The inhibition of TNF-α-induced or IL-6-induced adhesion of U937 monocytic cells to HT-29 cells in 10 μM solution of synthesized molecules was measured, and the results are summarized in Table 1 and Table 2. Mesalazine (2), a commercially available medication for the treatment of IBD, and mollugin were chosen as assay positive controls.
(§2) HT-29 human colonic epithelial cells and U937 human pre-monocytic cells were grown in RPMI 1640 medium supplemented with 10% FBS, 100 IU/mL penicillin, and 100 µg/mL streptomycin in a humidified incubator under 5% CO2/95% air.
(§3) U937 monocytic cell adhesion to colonic epithelial cells was evaluated using human U937 pre-monocytic cells, which were prelabeled with 2′,7′-bis(2-carboxyethyl)-5(6)-carboxyfluorescein acetoxymethyl ester (BCECF/AM, 10 μg/mL) for 1 h at 37 °C. HT-29 cells cultured in 24-well plates were pretreated with test compound, 5-ASA, or tofacitinib for 1 h prior to incubation with TNF-α (10 ng/mL) and IL-6 (5 ng/mL) for an additional 3 h. Cells were then co-incubated with BCECF/AM-prelabeled U937 cells (1 × 10^6 cells/well) for 30 min at 37 °C. Non-adhering U937 cells were removed, and the HT-29 cells and adherent U937 cells were washed twice with PBS. Images were captured and processed with a Nikon ECLIPSE TE2000-U microscope and NIS-Elements F software (Nikon, Tokyo, Japan). For quantitative analysis, other sets of cells were lysed in 0.1% Triton X-100 in Tris (0.1 M), and the fluorescence was measured using a fluorescence-detecting microplate reader (Promega , Madison, WI, USA) at […]. Experiments were performed in triplicate and repeated at least three times independently.

[2] = tested on: IL-6-induced adhesion of U937 monocytic cells to HT-29 cells; experiment: IL-6-induced colonic epithelial cell adhesion assay; assay type: cell-based, human; conditions: for inhibition at 10 µM: Homo sapiens, Epithelial cell, U937 adhesion to HT-29 cells, IL-6-induced; for inhibition of IL-6-induced monocyte-epithelial adhesion: 10 μM
Method: as §1, §2, §3

[3] = Metabolic stability, human liver microsomes; assay type: in vitro ADME; conditions: 1 μM
Method: (§4) Pooled human liver microsomes (150 donor) and dog, rat, mouse liver microsomes were obtained from BD Gentest Co. (Woburn, MA, USA). NADPH regeneration system was obtained from Promega. S-Mephenytoin, 4-hydroxymephenytoin, and 1’-hydroxymidazolam were purchased from Ultrafine Chemical Co. (Manchester, UK). All other chemicals and solvents were of the highest grade available. The metabolic stability assay was performed by incubation of human or selected animal liver microsomes (most often dog, rat and mouse), at 37 °C with a test compound at a final concentration of 1 μM, in the presence of 0.5 mg/mL microsomal protein and NADPH regeneration system, in a total volume of 100 μL of 100 mM phosphate buffer, pH 7.4. The incubation was started by the addition of NADPH regeneration system and terminated with 40 μL of ice-cold acetonitrile at 0 and 30 min. Precipitated proteins were removed by centrifugation at 10,000× g for 5 min at 4 °C. Aliquots of the supernatant were injected onto an LC-MS/MS system. Incubations terminated prior to the addition of NADPH regeneration system (time point 0 min) were used as standards, defined as 100%. Percent of the parent compound remaining was calculated by comparing peak area.

[4] = Metabolic stability, dog liver microsomes; assay type: in vitro ADME; conditions: 30 min, 1 μM
Method: as §4

[5] = Metabolic stability, rat liver microsomes; assay type: in vitro ADME; conditions: 30 min, 1 μM
Method: as §4

[6] = Metabolic stability, mouse liver microsomes; assay type: in vitro ADME; conditions: 30 min, 1 μM
Method: as §4

[7] = Plasma stability, human plasma; assay type: in vitro ADME; conditions: 37 °C, 1 μM
Method: (§5) The plasma stability assay was performed by incubation of human or rat plasma with a test compound in a final concentration of 1 μM for 120 min at 37 °C. The incubation was terminated by addition of 40 μL of ice-cold acetonitrile and vortexing for 5 min. The precipitated proteins were removed by centrifugation at 14,000× g for 5 min at 4 °C. Aliquots of the supernatant were injected onto a Shimadzu Nexera XR LC system. Percentages of the parent compound remaining were calculated by comparing peak areas using the Xcalibur software (version 1.6.1, Waltham, MA, USA).

[8] = Plasma stability, rat plasma; assay type: in vitro ADME; conditions: 2 h, 37 °C, 1 μM
Method: as §5

CN(C)CCOC(=O)c1c2c(c3ccccc3c1O)OC(C)(C)C=C2 [6a, 2-(Dimethylamino)ethyl 6-hydroxy-2,2-dimethyl-2H-benzo[h]chromene-5-carboxylate]
inhibition at 10 µM [1]: 38 ± 4.9% | inhibition at 10 µM [2]: 35.5 ± 4.3% | Metabolic Stability (% Remain, 30 min) Human [3]: 6 % Remain | Metabolic Stability (% Remain, 30 min) Dog [4]: 2 % Remain | Metabolic Stability (% Remain, 30 min) Rat [5]: 2 % Remain | Metabolic Stability (% Remain, 30 min) Mouse [6]: 3 % Remain

CN(C)CCCOC(=O)c1c2c(c3ccccc3c1O)OC(C)(C)C=C2 [6b, 3-(Dimethylamino)propyl 6-hydroxy-2,2-dimethyl-2H-benzo[h]chromene-5-carboxylate]
inhibition at 10 µM [1]: 39.6 ± 2.9% | inhibition at 10 µM [2]: 34.8 ± 4.1% | Metabolic Stability (% Remain, 30 min) Human [3]: 12 % Remain | Metabolic Stability (% Remain, 30 min) Dog [4]: 9 % Remain | Metabolic Stability (% Remain, 30 min) Rat [5]: 7 % Remain | Metabolic Stability (% Remain, 30 min) Mouse [6]: 8 % Remain

CC1(C)C=Cc2c(C(=O)OCCN3CCCC3)c(O)c3ccccc3c2O1 [6c, 2-(Pyrrolidin-1-yl)ethyl 6-hydroxy-2,2-dimethyl-2H-benzo[h]chromene-5-carboxylate]
inhibition of TNF-α-induced monocyte-epithelial adhesion [1]: good % inhibition | inhibition at 10 µM [1]: 39.7 ± 5.7% | inhibition of IL-6-induced monocyte-epithelial adhesion [2]: reduced % inhibition | inhibition at 10 µM [2]: 12.4 ± 2.1%

CC1(C)C=Cc2c(C(=O)OCCc3ccccn3)c(O)c3ccccc3c2O1 [6j, 2-(Pyridin-2-yl)ethyl 6-hydroxy-2,2-dimethyl-2H-benzo[h]chromene-5-carboxylate]
inhibition at 10 µM [1]: 43.1 ± 6.2% | inhibition at 10 µM [2]: 33.6 ± 5.9%

CC1(C)C=Cc2c(C(N)=O)c(O)c3ccccc3c2O1 [6k, 6-Hydroxy-2,2-dimethyl-2H-benzo[h]chromene-5-carboxamide]
inhibition at 10 µM [1]: 42.6 ± 4.2% | inhibition at 10 µM [2]: 39.1 ± 4.7% | Metabolic Stability (% Remain, 30 min) Human [3]: 10 % Remain | Metabolic Stability (% Remain, 30 min) Dog [4]: 6 % Remain | Metabolic Stability (% Remain, 30 min) Rat [5]: 2 % Remain | Metabolic Stability (% Remain, 30 min) Mouse [6]: 2 % Remain

CNC(=O)c1c2c(c3ccccc3c1O)OC(C)(C)C=C2 [6l, 6-Hydroxy-N,2,2-trimethyl-2H-benzo[h]chromene-5-carboxamide]
inhibition at 10 µM [1]: 45.4 ± 4.7% | inhibition at 10 µM [2]: 12.2 ± 4.4% | Metabolic Stability (% Remain, 30 min) Human [3]: 13 % Remain | Metabolic Stability (% Remain, 30 min) Dog [4]: 1 % Remain | Metabolic Stability (% Remain, 30 min) Rat [5]: 1 % Remain | Metabolic Stability (% Remain, 30 min) Mouse [6]: 2 % Remain

CCNC(=O)c1c2c(c3ccccc3c1O)OC(C)(C)C=C2 [6m, N-Ethyl-6-hydroxy-2,2-dimethyl-2H-benzo[h]chromene-5-carboxamide]
inhibition at 10 µM [1]: 38.4 ± 5.7% | inhibition at 10 µM [2]: 25.8 ± 3.4%

CN1CCN(C(=O)c2c3c(c4ccccc4c2O)OC(C)(C)C=C3)CC1 [6n, (6-Hydroxy-2,2-dimethyl-2H-benzo[h]chromen-5-yl)(4-methylpiperazin-1-yl)methanone]
inhibition at 10 µM [1]: 37.4 ± 3.3% | inhibition at 10 µM [2]: 34.2 ± 7.9%

CCN1CCN(C(=O)c2c3c(c4ccccc4c2O)OC(C)(C)C=C3)CC1 [6o]
inhibition of TNF-α-induced monocyte-epithelial adhesion [1]: good % inhibition | inhibition at 10 µM [1]: 46.2 ± 5.4% | inhibition of IL-6-induced monocyte-epithelial adhesion [2]: reduced % inhibition | inhibition at 10 µM [2]: 9.4 ± 2.1%

COC(=O)c1c2c(c3ccc(F)cc3c1O)OC(C)(C)C=C2 [14a, Methyl 8-fluoro-6-hydroxy-2,2-dimethyl-2H-benzo[h]chromene-5-carboxylate]
inhibition at 10 µM [1]: 36.1 ± 7.6% | inhibition at 10 µM [2]: 59.4 ± 7.4% | Metabolic Stability (% Remain, 30 min) Human [3]: 52 % Remain | Metabolic Stability (% Remain, 30 min) Dog [4]: 52 % Remain | Metabolic Stability (% Remain, 30 min) Rat [5]: 78 % Remain | Metabolic Stability (% Remain, 30 min) Mouse [6]: 82 % Remain | Plasma Stability (% Remain, 2 h) Human [7]: 39.5 % Remain | Plasma Stability (% Remain, 2 h) Rat [8]: 2 % Remain

COC(=O)c1c2c(c3ccc(C)cc3c1O)OC(C)(C)C=C2 [14b, Methyl 6-hydroxy-2,2,8-trimethyl-2H-benzo[h]chromene-5-carboxylate]
inhibition at 10 µM [1]: 29.8 ± 7.2% | inhibition at 10 µM [2]: 23.4 ± 2.5% | Metabolic Stability (% Remain, 30 min) Human [3]: 88 % Remain | Metabolic Stability (% Remain, 30 min) Dog [4]: 4 % Remain | Metabolic Stability (% Remain, 30 min) Rat [5]: 51 % Remain | Metabolic Stability (% Remain, 30 min) Mouse [6]: 19 % Remain | Plasma Stability (% Remain, 2 h) Human [7]: 100 % Remain | Plasma Stability (% Remain, 2 h) Rat [8]: 1 % Remain

COC(=O)c1c2c(c3ccc(C(F)(F)F)cc3c1O)OC(C)(C)C=C2 [14c, Methyl 6-hydroxy-2,2-dimethyl-8-(trifluoromethyl)-2H-benzo[h]chromene-5-carboxylate]
inhibition at 10 µM [1]: 63.2 ± 10.8% | inhibition at 10 µM [2]: 39.3 ± 5.6% | Metabolic Stability (% Remain, 30 min) Human [3]: 100 % Remain | Metabolic Stability (% Remain, 30 min) Dog [4]: 22 % Remain | Metabolic Stability (% Remain, 30 min) Rat [5]: 90 % Remain | Metabolic Stability (% Remain, 30 min) Mouse [6]: 70 % Remain | Plasma Stability (% Remain, 2 h) Human [7]: 97 % Remain | Plasma Stability (% Remain, 2 h) Rat [8]: 10 % Remain

COC(=O)c1c2c(c3cc(F)ccc3c1O)OC(C)(C)C=C2 [14d, Methyl 9-fluoro-6-hydroxy-2,2-dimethyl-2H-benzo[h]chromene-5-carboxylate]
inhibition at 10 µM [1]: 24.9 ± 8.1% | inhibition at 10 µM [2]: 28 ± 5.6%

CC1(C)C=Cc2c(C(=O)OCCN3CCOCC3)c(O)c3cc(F)ccc3c2O1 [15a, 2-Morpholinoethyl 8-fluoro-6-hydroxy-2,2-dimethyl-2H-benzo[h]chromene-5-carboxylate]
inhibition at 10 µM [1]: 36.6 ± 9.4% | inhibition at 10 µM [2]: 61.1 ± 10.9% | Metabolic Stability (% Remain, 30 min) Human [3]: 78 % Remain | Metabolic Stability (% Remain, 30 min) Dog [4]: 10 % Remain | Metabolic Stability (% Remain, 30 min) Rat [5]: 9 % Remain | Metabolic Stability (% Remain, 30 min) Mouse [6]: 10 % Remain | Plasma Stability (% Remain, 2 h) Human [7]: 100 % Remain | Plasma Stability (% Remain, 2 h) Rat [8]: 91 % Remain

Cc1ccc2c3c(c(C(=O)OCCN4CCOCC4)c(O)c2c1)C=CC(C)(C)O3 [15b, 2-Morpholinoethyl 6-hydroxy-2,2,8-trimethyl-2H-benzo[h]chromene-5-carboxylate]
inhibition at 10 µM [1]: 24.9 ± 3.5% | inhibition at 10 µM [2]: 54.3 ± 6.5% | Metabolic Stability (% Remain, 30 min) Human [3]: 41 % Remain | Metabolic Stability (% Remain, 30 min) Dog [4]: 57 % Remain | Metabolic Stability (% Remain, 30 min) Rat [5]: 9 % Remain | Metabolic Stability (% Remain, 30 min) Mouse [6]: 18 % Remain | Plasma Stability (% Remain, 2 h) Human [7]: 100 % Remain | Plasma Stability (% Remain, 2 h) Rat [8]: 55 % Remain
